This is an account of results in ChEMBL document CHEMBL1255320, “Anti-BK virus activity of nucleoside analogs” (Antimicrob Agents Chemother, 2008).

One series deals with BK polyomavirus. Briefly: Antimicrobial activity against BK polyomavirus ATCC VR837 infected in human WI38 cells assessed as reduction in viral titer after 7 days by PCR analysis. The note with it: Betapolyomavirus hominis, ATCC VR837, WI-38, 168 h. The series is classed as functional, organism-based.
Series [1] can be described thus: Selectivity index, ratio of CC50 for human WI38 cells to EC50 for BK polyomavirus ATCC VR837. The note with it: read-out: Selectivity Index. The series is classed as toxicity, cell-based, WI-38.
Series [2] can be described thus: Cytotoxicity against human WI38 cells by neutral red assay. The series is classed as cell-based, WI-38.

Structures are written as SMILES. Bounds are passed on as bounds.

The term EC50 denotes the concentration at which the effect is half-maximal. The CC50 is the concentration giving 50% cytotoxicity. Read a low CC50 as greater toxicity to the cells. Take `Nc1ccn([C@@H]2CS[C@H](CO)O2)c(=O)n1` [LAMIVUDINE]: in the series on BK polyomavirus, the EC50 is above 100 µM. Besides, the selectivity ratio in series [1] was 1. Further, in series [2], the CC50 was above 100 µM.

Take `CC(C)OC(=O)OCOP(=O)(CO[C@H](C)Cn1cnc2c(N)ncnc21)OCOC(=O)OC(C)C` [TENOFOVIR DISOPROXIL]: the EC50 with BK polyomavirus was above 50 µM. For the same molecule, the selectivity ratio in series [1] turned out to be 1. Moreover, the half-maximal cytotoxic concentration (CC50) in series [2] was above 50 µM.

Consider `CCCCCCCCCCCCCCCCCCOCCOP(=O)(O)CO[C@H](CO)Cn1cnc2c(N)ncnc21`, for which, in the series on BK polyomavirus, the EC50 worked out at 0.03 µM. Also, the selectivity ratio in series [1] is 11.7. This molecule displayed a CC50 in series [2] of 0.5 µM.

Regarding `O=c1[nH]cnc2c1ncn2[C@H]1CC[C@@H](CO)O1` [DIDANOSINE], the EC50 in the series with BK polyomavirus is above 100 µM. Also, the selectivity ratio in series [1] is 1. The molecule also returned a half-maximal cytotoxic concentration (CC50) in series [2] above 100 µM.

Regarding `Nc1ncnc2c1ncn2/C=C1/CC1(CO)CO`, in the series with BK polyomavirus, the EC50 amounted to 40.8 µM. The selectivity ratio in series [1] is 11.9. In addition, it took 312 µM to reach half-maximal cytotoxicity in series [2] (CC50).

As for `Nc1nc(O)c2ncn(/C=C3/CC3CO)c2n1` (stereo unspecified) [SYNGUANOL], in the series with BK polyomavirus, the concentration giving a half-maximal response (EC50) is above 100 µM. Moreover, the selectivity ratio in series [1] was determined as 1. The molecule further registered a cytotoxic concentration (CC50) in series [2] above 100 µM.

Consider `Cc1cn([C@H]2C=C[C@@H](CO)O2)c(=O)[nH]c1=O` [STAVUDINE], for which, in the series on BK polyomavirus, the EC50 is above 100 µM. The selectivity ratio in series [1] came to 1. Besides, the CC50 in series [2] was above 100 µM.

Take `CCCCCCCC/C=C\CCCCCCCCOC(=O)Nc1ncnc2c1ncn2CCOCP(=O)(O)O`: the EC50 in the series on BK polyomavirus turned out to be 2.3 µM. Moreover, the selectivity ratio in series [1] was determined as 233. The same molecule returned a CC50 in series [2] of 529 µM.

As to `Cc1cn([C@H]2C[C@H](N=[N+]=[N-])[C@@H](CO)O2)c(=O)[nH]c1=O` [ZIDOVUDINE], the EC50 in the series on BK polyomavirus was above 100 µM. Moreover, the selectivity ratio in series [1] was found to be 1. Besides, in series [2], the CC50 was above 100 µM.

For the molecule `Nc1nc(=O)c2ncn(COCCOP3(=O)OCc4ccccc4O3)c2[nH]1` (stereo unspecified), in the series on BK polyomavirus, the concentration for a half-maximal effect (EC50) is above 100 µM. The selectivity ratio in series [1] stood at 1. For the same molecule, the CC50 in series [2] came to 100 µM.

As for `CCCCCCCCCCCCCCCCOCCCOP(=O)(O)CO[C@H](CO)Cn1cnc2c(N)ncnc21`, the concentration giving a half-maximal response (EC50) with BK polyomavirus was found to be 0.02 µM. Also, in series [1], the selectivity ratio stood at 58.5. Also, the CC50 in series [2] was 0.8 µM.

Consider `Nc1ncnc2c1ncn2CCOCP(=O)(O)O` [ADEFOVIR], for which the concentration for a half-maximal effect (EC50) in the series with BK polyomavirus stood at 95.8 µM. Moreover, the selectivity ratio in series [1] was found to be 1.3. This molecule also gave a CC50 in series [2] of 125 µM.

Regarding `CC(C)(C)C(=O)OCOP(=O)(COCCn1cnc2c(N)ncnc21)OCOC(=O)C(C)(C)C` [ADEFOVIR DIPIVOXIL], in the series on BK polyomavirus, the EC50 came out at 0.7 µM. In addition, the selectivity ratio in series [1] stood at 5.7. This molecule showed a half-maximal cytotoxic concentration (CC50) in series [2] of 3.1 µM.

Turning to `Nc1nc2c(ncn2/C=C2/CC2(CO)CO)c(=O)[nH]1` [FILOCICLOVIR], the 50% effective concentration (EC50) with BK polyomavirus is above 100 µM. Further, the selectivity ratio in series [1] turned out to be 1. Further, in series [2], the CC50 was above 100 µM.

In the case of `CCCCCCCC/C=C\CCCCCCCC(=O)Nc1ncnc2c1ncn2CCOCP(=O)(O)O`, the EC50 in the series with BK polyomavirus was 1 µM. The selectivity ratio in series [1] came to 58.9. The molecule also showed a cytotoxic concentration (CC50) in series [2] of 165 µM.

Take `CC(=O)OCC(CCn1cnc2cnc(N)nc21)COC(C)=O` [FAMCICLOVIR]: the half-maximal effective concentration (EC50) with BK polyomavirus was above 0.78 µM. Besides, the selectivity ratio in series [1] is 1. In series [2], this molecule yielded a half-maximal cytotoxic concentration (CC50) above 0.78 µM.

Regarding `Cc1cccc2c1OP(=O)(OC[C@H]1O[C@@H](n3cc(/C=C/Br)c(=O)[nH]c3=O)CC1O)OC2` (single isomer, unassigned), in the series with BK polyomavirus, the EC50 is 41.9 µM. In addition, in series [1], the selectivity ratio is 2.3. Besides, the cytotoxic concentration (CC50) in series [2] was 98.3 µM.
